A short description of series [1]: Particle size test of crystal form I (micrometer particle size analyzer MS3000, dry method). The following applies: particle size analysis. The class given is physicochemical. The source says:
The particle size conditions of the crystal form I of the compound of formula I used in the present disclosure are: name/model of detection instrument: micrometer particle size analyzer/MS3000; test method: dry method; sample injection rate: 50%; air pressure: 2.5 bar; slit width: 2.0 mm; refractive index: 1.52; absorption rate: 0.1; shade degree: 0.5% to 6%; background measurement time: 10 s; and sample measurement time: 10 s. The crystal obtained in Example 1 was subject to a particle size test in accordance with the above conditions.

Series [2] is described as follows: Hygroscopicity test of crystal form I (dynamic moisture adsorption instrument, DVS). The class given is physicochemical. The following applies: for Weight gain percentage at 80% relative humidity: DVS, about 28 mg of crystal. Here is the method: About 28 mg of the crystal obtained in Example 1 was taken. The hygroscopicity of the crystal was determined with dynamic moisture adsorption instrument in accordance with the above conditions. The weight gain of crystal form I was within 0.2% at 80% relative humidity.

The record followed here is US12673964B2, “Crystal of thyroid hormone B receptor agonist, process for preparing the same and use thereof” (GANNEX PHARMA CO., LTD., priority 2020, dated 2026).

Molecules are shown by their SMILES.

Regarding `Cc1cc(OC[P@@]2(=O)OCC[C@@H](c3cccc(Cl)c3)O2)cc(C)c1Cc1ccc(O)c(C(C)C)c1` [Example 1], in series [1], the “Specific Area” value was 807.1 m^2/kg. The compound further yielded a particle size Dv10 in series [1] (Dv 10) of 6.41 µm. Besides, the particle size Dv50 in series [1] (Dv 50) turned out to be 20.3 µm. The same compound displayed a particle size Dv90 in series [1] (Dv 90) of 48.2 µm. The compound also registered a particle size Dv95 in series [1] (Dv 95) of 59.1 µm. Also, the “Weight gain percentage at 80% relative humidity” value in series [2] is recorded as 0.1213%; in series [2] (listed as crystal form I), not above 0.2%. Further, the Hygroscopicity class entry in series [2] (guidance principle of drug hygroscopicity, Appendix XIXJ of the Chinese Pharmacopoeia 2015) is “no or nearly no hygroscopicity”.
